Reference: PubChem BioAssay AID1745844 (Carcinogenic Potency Database (CPDB), 2022)
Where “and” joins values, the source holds several entries; their conditions need not be identical. Identical values can stand only once. Calls of active or inactive are those of the source. How the calls were made is not given here.

Tested on: rodent lifetime carcinogenesis bioassay, tumor incidence TD50
Experiment: carcinogenic potency in animals, long-term in vivo studies, CPDB compilation (AID 1745844)
Details: inhaled; for carcinogen call: lesion: one or several types, types not named

Question: Which TD50 (hamster, strain Syrian Golden, females, site: any site (literature study), lesion: several types, types named in the paper, dosed 78 weeks, study length 78 weeks) does the source give for `C=CC(=C)Cl` here?
Answer: 180 mg/kg/day (inactive)

Question: What about the carcinogen call (hamster, strain Syrian Golden, females, site: liver, dosed 78 weeks, study length 78 weeks) of the same compound?
Answer: negative (inactive)

Question: What about the carcinogen call (hamster, strain Syrian Golden, females, site: lung, dosed 78 weeks, study length 78 weeks) of the same compound?
Answer: negative (inactive)

Question: And the TD50 (hamster, strain Syrian Golden, males, site: any site (literature study), lesion: several types, types named in the paper, dosed 78 weeks, study length 78 weeks)?
Answer: 110 mg/kg/day (inactive)

Question: And the carcinogen call (hamster, strain Syrian Golden, males, site: liver, dosed 78 weeks, study length 78 weeks)?
Answer: negative (inactive)

Question: And the carcinogen call (hamster, strain Syrian Golden, males, site: lung, dosed 78 weeks, study length 78 weeks)?
Answer: negative (inactive)

Question: And the TD50 (mouse, strain B6C3F1, females, site: Harderian gland, lesion: adenoma + carcinoma, dosed 104 weeks, study length 104 weeks)?
Answer: 55.2 mg/kg/day

Question: And the TD50 (mouse, strain B6C3F1, females, site: Harderian gland, lesion: adenoma, dosed 104 weeks, study length 104 weeks)?
Answer: 61.3 mg/kg/day

Question: What about the TD50 (mouse, strain B6C3F1, females, site: Zymbal's gland, lesion: carcinoma, dosed 104 weeks, study length 104 weeks) of the same compound?
Answer: 864 mg/kg/day

Question: And the TD50 (mouse, strain B6C3F1, females, site: all sites + forestomach + Harderian gland + liver + lung + mesentery + mammary gland + subcutaneous tissue + Zymbal's gland, lesion: hemangioma + hemangiosarcoma + squamous-cell carcinoma + squamous-cell papilloma + adenoma + carcinoma + hepatocellular adenoma + hepa, dosed 104 weeks, study length 104 weeks)?
Answer: 4 mg/kg/day

Question: What about the TD50 (mouse, strain B6C3F1, females, site: all sites, lesion: hemangioma + hemangiosarcoma, dosed 104 weeks, study length 104 weeks) of the same compound?
Answer: 21.5 mg/kg/day

Question: And the TD50 (mouse, strain B6C3F1, females, site: all sites, lesion: hemangioma, dosed 104 weeks, study length 104 weeks)?
Answer: 134 mg/kg/day

Question: What about the TD50 (mouse, strain B6C3F1, females, site: all sites, lesion: hemangiosarcoma, dosed 104 weeks, study length 104 weeks) of the same compound?
Answer: 22.2 mg/kg/day

Question: What about the TD50 (mouse, strain B6C3F1, females, site: any site (literature study), lesion: several types, types named in the paper, dosed 104 weeks, study length 104 weeks) of the same compound?
Answer: 3.92 mg/kg/day

Question: And the TD50 (mouse, strain B6C3F1, females, site: forestomach, lesion: squamous-cell carcinoma + squamous-cell papilloma, dosed 104 weeks, study length 104 weeks)?
Answer: 332 mg/kg/day

Question: And the TD50 (mouse, strain B6C3F1, females, site: liver, lesion: hepatocellular adenoma + hepatoblastoma + hepatocellular carcinoma, dosed 104 weeks, study length 104 weeks)?
Answer: 7.07 mg/kg/day

Question: And the TD50 (mouse, strain B6C3F1, females, site: liver, lesion: hepatocellular adenoma + hepatocellular carcinoma, dosed 104 weeks, study length 104 weeks)?
Answer: 7.07 mg/kg/day

Question: What about the TD50 (mouse, strain B6C3F1, females, site: liver, lesion: hepatocellular adenoma, dosed 104 weeks, study length 104 weeks) of the same compound?
Answer: 19.8 mg/kg/day

Question: And the TD50 (mouse, strain B6C3F1, females, site: liver, lesion: hepatocellular carcinoma, dosed 104 weeks, study length 104 weeks)?
Answer: 15.2 mg/kg/day

Question: And the TD50 (mouse, strain B6C3F1, females, site: lung, lesion: alveolar/bronchiolar adenoma + alveolar/bronchiolar carcinoma, dosed 104 weeks, study length 104 weeks)?
Answer: 5.36 mg/kg/day

Question: What about the TD50 (mouse, strain B6C3F1, females, site: lung, lesion: alveolar/bronchiolar adenoma, dosed 104 weeks, study length 104 weeks) of the same compound?
Answer: 8.65 mg/kg/day

Question: And the TD50 (mouse, strain B6C3F1, females, site: lung, lesion: alveolar/bronchiolar carcinoma, dosed 104 weeks, study length 104 weeks)?
Answer: 14.6 mg/kg/day

Question: And the TD50 (mouse, strain B6C3F1, females, site: mammary gland, lesion: adenoma + carcinoma, dosed 104 weeks, study length 104 weeks)?
Answer: 65.6 mg/kg/day

Question: What about the TD50 (mouse, strain B6C3F1, females, site: mammary gland, lesion: carcinoma, dosed 104 weeks, study length 104 weeks) of the same compound?
Answer: 75.3 mg/kg/day

Question: And the TD50 (mouse, strain B6C3F1, females, site: mesentery, lesion: hemangioma + hemangiosarcoma, dosed 104 weeks, study length 104 weeks)?
Answer: 25.9 mg/kg/day

Question: What about the TD50 (mouse, strain B6C3F1, females, site: mesentery, lesion: hemangiosarcoma, dosed 104 weeks, study length 104 weeks) of the same compound?
Answer: 32.2 mg/kg/day

Question: What about the TD50 (mouse, strain B6C3F1, females, site: mesentery, lesion: sarcoma, dosed 104 weeks, study length 104 weeks) of the same compound?
Answer: 40 mg/kg/day

Question: What about the TD50 (mouse, strain B6C3F1, females, site: pituitary gland, lesion: pars distalis adenoma, dosed 104 weeks, study length 104 weeks) of the same compound?
Answer: 68.1 mg/kg/day

Question: And the TD50 (mouse, strain B6C3F1, females, site: subcutaneous tissue, lesion: sarcoma, dosed 104 weeks, study length 104 weeks)?
Answer: 28.9 mg/kg/day

Question: What about the TD50 (mouse, strain B6C3F1, females, site: uterus, lesion: endometrial stromal polyp, dosed 104 weeks, study length 104 weeks) of the same compound?
Answer: 133 mg/kg/day

Question: And the TD50 (mouse, strain B6C3F1, males, site: Harderian gland, lesion: adenoma + adenoma, bilateral + carcinoma, dosed 104 weeks, study length 104 weeks)?
Answer: 60.9 mg/kg/day

Question: And the TD50 (mouse, strain B6C3F1, males, site: Harderian gland, lesion: adenoma + adenoma, bilateral, dosed 104 weeks, study length 104 weeks)?
Answer: 79.5 mg/kg/day

Question: What about the TD50 (mouse, strain B6C3F1, males, site: all sites + forestomach + Harderian gland + lung, lesion: hemangioma + hemangiosarcoma + squamous-cell carcinoma + squamous-cell papilloma + adenoma + adenoma, bilateral + carcinoma + alveolar, dosed 104 weeks, study length 104 weeks) of the same compound?
Answer: 8.68 mg/kg/day

Question: What about the TD50 (mouse, strain B6C3F1, males, site: all sites, lesion: hemangioma + hemangiosarcoma, dosed 104 weeks, study length 104 weeks) of the same compound?
Answer: 17.9 mg/kg/day and 21.3 mg/kg/day

Question: What about the TD50 (mouse, strain B6C3F1, males, site: all sites, lesion: hemangiosarcoma, dosed 104 weeks, study length 104 weeks) of the same compound?
Answer: 19.1 mg/kg/day and 23.8 mg/kg/day

Question: And the TD50 (mouse, strain B6C3F1, males, site: any site (literature study), lesion: several types, types named in the paper, dosed 104 weeks, study length 104 weeks)?
Answer: 28.4 mg/kg/day

Question: And the TD50 (mouse, strain B6C3F1, males, site: forestomach, lesion: squamous-cell carcinoma + squamous-cell papilloma, dosed 104 weeks, study length 104 weeks)?
Answer: 291 mg/kg/day

Question: What about the TD50 (mouse, strain B6C3F1, males, site: forestomach, lesion: squamous-cell papilloma, dosed 104 weeks, study length 104 weeks) of the same compound?
Answer: 335 mg/kg/day

Question: What about the TD50 (mouse, strain B6C3F1, males, site: kidney, lesion: tubule adenoma, dosed 104 weeks, study length 104 weeks) of the same compound?
Answer: 301 mg/kg/day and 129 mg/kg/day

Question: What about the TD50 (mouse, strain B6C3F1, males, site: liver, lesion: hemangiosarcoma, dosed 104 weeks, study length 104 weeks) of the same compound?
Answer: 123 mg/kg/day

Question: And the TD50 (mouse, strain B6C3F1, males, site: liver, lesion: hepatoblastoma + hepatocellular carcinoma, dosed 104 weeks, study length 104 weeks)?
Answer: 19.5 mg/kg/day

Question: What about the TD50 (mouse, strain B6C3F1, males, site: liver, lesion: hepatocellular adenoma + hepatoblastoma + hepatocellular carcinoma, dosed 104 weeks, study length 104 weeks) of the same compound?
Answer: 39.9 mg/kg/day

Question: What about the TD50 (mouse, strain B6C3F1, males, site: liver, lesion: hepatocellular adenoma + hepatocellular carcinoma, dosed 104 weeks, study length 104 weeks) of the same compound?
Answer: 42.5 mg/kg/day

Question: And the TD50 (mouse, strain B6C3F1, males, site: liver, lesion: hepatocellular adenoma, dosed 104 weeks, study length 104 weeks)?
Answer: 71.9 mg/kg/day

Question: What about the TD50 (mouse, strain B6C3F1, males, site: liver, lesion: hepatocellular carcinoma, dosed 104 weeks, study length 104 weeks) of the same compound?
Answer: 21.6 mg/kg/day
